Experimental data: ChEMBL document CHEMBL6074626, “Recent advances in triazole synthesis via click chemistry and their pharmacological applications: A review” (Bioorg Med Chem Lett, 2024)
Converted amounts (≈) assume the structure as drawn.

Assays:
[1] = target: T1, Prostaglandin G/H synthase 1 (Ovis aries, UniProt P05979); assay: Inhibition of ovine COX-1
T1 sequence (P05979 whole entry): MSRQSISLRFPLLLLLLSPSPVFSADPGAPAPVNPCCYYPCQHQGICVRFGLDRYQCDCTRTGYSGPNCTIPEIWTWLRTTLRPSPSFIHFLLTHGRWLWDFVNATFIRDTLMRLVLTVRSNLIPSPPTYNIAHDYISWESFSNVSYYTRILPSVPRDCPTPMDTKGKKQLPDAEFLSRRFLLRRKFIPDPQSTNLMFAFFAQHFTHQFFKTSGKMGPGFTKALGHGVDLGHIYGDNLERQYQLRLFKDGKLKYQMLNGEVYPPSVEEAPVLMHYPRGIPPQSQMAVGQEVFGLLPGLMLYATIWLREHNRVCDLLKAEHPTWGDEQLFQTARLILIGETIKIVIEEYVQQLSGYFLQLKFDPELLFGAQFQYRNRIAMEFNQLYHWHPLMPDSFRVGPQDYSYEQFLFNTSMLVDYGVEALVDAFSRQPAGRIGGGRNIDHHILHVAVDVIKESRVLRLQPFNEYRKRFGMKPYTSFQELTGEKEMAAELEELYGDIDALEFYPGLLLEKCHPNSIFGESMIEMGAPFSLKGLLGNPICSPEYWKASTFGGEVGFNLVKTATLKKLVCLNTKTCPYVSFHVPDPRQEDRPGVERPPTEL

[2] = target: T2, Prostaglandin G/H synthase 2 (Homo sapiens, UniProt P35354); assay: Inhibition of human recombinant COX-2
T2 sequence (P35354 whole entry): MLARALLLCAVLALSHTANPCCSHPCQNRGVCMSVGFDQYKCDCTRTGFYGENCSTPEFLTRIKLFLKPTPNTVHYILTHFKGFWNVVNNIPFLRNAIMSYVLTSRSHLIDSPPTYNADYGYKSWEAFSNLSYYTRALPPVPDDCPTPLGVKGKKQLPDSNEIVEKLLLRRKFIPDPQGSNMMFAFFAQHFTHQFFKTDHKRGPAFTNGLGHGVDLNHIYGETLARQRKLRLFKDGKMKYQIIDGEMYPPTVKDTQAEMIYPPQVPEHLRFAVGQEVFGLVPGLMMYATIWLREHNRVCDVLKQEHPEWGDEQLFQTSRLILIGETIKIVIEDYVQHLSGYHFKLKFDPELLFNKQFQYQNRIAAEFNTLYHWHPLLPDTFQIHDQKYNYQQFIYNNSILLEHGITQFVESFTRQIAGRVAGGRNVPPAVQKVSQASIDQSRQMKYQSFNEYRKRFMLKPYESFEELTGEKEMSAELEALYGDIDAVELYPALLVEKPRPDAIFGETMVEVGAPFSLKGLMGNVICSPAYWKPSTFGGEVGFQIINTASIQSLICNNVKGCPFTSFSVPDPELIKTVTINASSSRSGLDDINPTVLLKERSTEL

HT-29 = assay: Cytotoxicity against human HT-29 cells assessed as reduction in cell viability incubated for 72 hrs by MTT assay; conditions: HT-29, 72 h
MOLT-4 = assay: Cytotoxicity against human MOLT-4 cells assessed as reduction in cell viability incubated for 72 hrs by MTT assay; conditions: MOLT-4, 72 h
MCF7 = assay: Cytotoxicity against human MCF7 cells assessed as reduction in cell viability incubated for 72 hrs by MTT assay; conditions: MCF7, 72 h
Enterococcus faecalis [3] = assay: microbe, parasite or virus in culture; conditions: ATCC 29212, 24 h
Description: Antibacterial activity against Enterococcus faecalis ATCC 29212 assessed as inhibition of bacterial growth incubated for 24 hrs by broth microdilution method

Proteus mirabilis = assay: microbe, parasite or virus in culture; conditions: ATCC 35659
Description: Antibacterial activity against Proteus mirabilis ATCC 35659 assessed as reduction in bacterial growth incubated for 18 to 24 hrs by broth microdilution method

Bacillus cereus [4] = assay: microbe, parasite or virus in culture; conditions: ATTC 10876
Description: Antibacterial activity against Bacillus cereus ATTC 10876 assessed as reduction in bacterial growth incubated for 18 to 24 hrs by broth microdilution method

Escherichia coli [5] = assay: microbe, parasite or virus in culture; conditions: ATCC 25922
Description: Antibacterial activity against Escherichia coli ATCC 25922 assessed as reduction in bacterial growth incubated for 18 to 24 hrs by broth microdilution method

Staphylococcus aureus [6] = assay: microbe, parasite or virus in culture; conditions: ATCC 25923
Description: Antibacterial activity against Staphylococcus aureus ATCC 25923 assessed as reduction in bacterial growth incubated for 18 to 24 hrs by broth microdilution method

Pseudomonas aeruginosa = assay: microbe, parasite or virus in culture; conditions: ATCC 27853
Description: Antimicrobial activity against Pseudomonas aeruginosa ATCC 27853 assessed as inhibition of microbial growth by CLSI protocol based two-fold serial broth microdilution method

Enterococcus faecalis [7] = assay: microbe, parasite or virus in culture; conditions: ATTC 29212, 24 h
Description: Antibacterial activity against Enterococcus faecalis ATCC 29212 assessed as reduction in bacterial growth incubated for 24 hrs by CLSI protocol based assay

[8] = Antioxidant activity assessed as DPPH radical scavenging activity incubated for 30 mins
Bacillus cereus [9] = assay: microbe, parasite or virus in culture; conditions: ATCC 14579
Description: Antibacterial activity against Bacillus cereus ATCC 14579 assessed as reduction in bacterial growth incubated for 18 to 24 hrs by broth microdilution method

Staphylococcus aureus [10] = assay: microbe, parasite or virus in culture; conditions: NCTC 13616, 20 h
Description: Antibacterial activity against methicillin-resistant Staphylococcus aureus NCTC 13616 assessed as reduction in bacterial growth incubated for 20 hrs by broth micro-dilution method

Klebsiella pneumoniae = assay: microbe, parasite or virus in culture; conditions: ATCC 43816, 20 h
Description: Antimicrobial activity against Klebsiella pneumoniae ATCC 43816 assessed as reduction in bacterial growth incubated for 20 hrs by broth microdilution analysis

Escherichia coli [11] = assay: microbe, parasite or virus in culture; conditions: ATCC 8739, 20 h
Description: Antimicrobial activity against Escherichia coli ATCC 8739 assessed as reduction in bacterial growth incubated for 20 hrs by broth microdilution analysis

Bacillus subtilis = assay: microbe, parasite or virus in culture; conditions: ATCC 6633, 20 h
Description: Antibacterial activity against Bacillus subtilis ATCC 6633 assessed as bacterial growth inhibition measured for 20 hrs by micro-broth dilution method

Proteus vulgaris = assay: microbe, parasite or virus in culture; conditions: ATCC 13315, 24 h
Description: Antimicrobial activity against Proteus vulgaris ATCC 13315 assessed as microbial growth inhibition incubated for 24 hrs by broth microdilution method

O=C(/C=C/c1ccc(Br)cc1)c1cc(-n2cc(-c3ccccc3)nn2)ccc1O
IC50 [1]: 7.4 µM | IC50 [2]: 0.037 µM

O=C(/C=C/c1ccc(Br)cc1)c1cc(-n2cc(CN3C(=O)C(=O)c4ccccc43)nn2)ccc1O
IC50 [1]: 7.4 µM | IC50 [2]: 0.037 µM

O=C1C=C(NCc2cn(Cc3ccc(C(F)(F)F)cc3)nn2)C(=O)c2ccccc21
IC50 (HT-29): 6.8 µM | IC50 (MOLT-4): 10.4 µM | IC50 (MCF7): 10.4 µM

CCCCCCCCCCn1nnc(-c2n[nH]c(=S)n2N)c1-c1n[nH]c(=S)n1N
MIC (Enterococcus faecalis [3]): 1 µM (≈ 0.438 µg/mL) | MIC (Proteus mirabilis): 1 µM (≈ 0.438 µg/mL) | MIC (Bacillus cereus [4]): 1 µM (≈ 0.438 µg/mL) | MIC (Escherichia coli [5]): 1 µM (≈ 0.438 µg/mL) | MIC (Staphylococcus aureus [6]): 1 µM (≈ 0.438 µg/mL) | MIC (Pseudomonas aeruginosa): 1 µM (≈ 0.438 µg/mL) | MIC (Enterococcus faecalis [7]): 1 µM (≈ 0.438 µg/mL)

Cc1ccc(/C=C/C(=O)c2cc(-n3cc(CN4C(=O)C(=O)c5ccccc54)nn3)ccc2O)cc1
IC50 [1]: 7.4 µM | IC50 [2]: 0.037 µM

CN(C)C(=O)c1ccc(/C=C/C(=O)c2cc(-n3cc(CN4C(=O)C(=O)c5ccccc54)nn3)ccc2O)cc1
IC50 [1]: 7.4 µM | IC50 [2]: 0.037 µM

O=C(/C=C/C=C/c1ccccc1)c1cc(-n2cc(-c3ccccc3)nn2)ccc1O
IC50 [1]: 7.4 µM | IC50 [2]: 0.037 µM

O=C(/C=C/C=C/c1ccccc1)c1cc(-n2cc(CN3C(=O)C(=O)c4ccccc43)nn2)ccc1O
IC50 [1]: 7.4 µM | IC50 [2]: 0.037 µM

CCCCCc1ccc(-c2cn(CCCOc3ccc(-c4cc(=O)c5ccccc5o4)cc3)nn2)cc1
IC50 [8]: 36 µM

CCCCCCCCCCCCn1nnc(-c2n[nH]c(=S)n2N)c1-c1n[nH]c(=S)n1N
MIC (Enterococcus faecalis [3]): 1 µM (≈ 0.466 µg/mL) | MIC (Proteus mirabilis): 1 µM (≈ 0.466 µg/mL) | MIC (Bacillus cereus [4]): 1 µM (≈ 0.466 µg/mL) | MIC (Escherichia coli [5]): 1 µM (≈ 0.466 µg/mL) | MIC (Staphylococcus aureus [6]): 1 µM (≈ 0.466 µg/mL) | MIC (Pseudomonas aeruginosa): 1 µM (≈ 0.466 µg/mL) | MIC (Enterococcus faecalis [7]): 1 µM (≈ 0.466 µg/mL)

COc1cc(/C=C/C(=O)c2cc(-n3cc(-c4ccccc4)nn3)ccc2O)cc(OC)c1OC
IC50 [1]: 7.4 µM | IC50 [2]: 0.037 µM

Cc1ccc(/C=C/C(=O)c2cc(-n3cc(-c4ccccc4)nn3)ccc2O)cc1
IC50 [1]: 7.4 µM | IC50 [2]: 0.037 µM

O=C(/C=C/c1ccccc1)c1cc(-n2cc(-c3ccccc3)nn2)ccc1O
IC50 [1]: 7.4 µM | IC50 [2]: 0.037 µM

CC(C)Cc1ccc(C(C)C(=O)c2ccc(OCc3cn(-c4cccc(Cl)c4)nn3)cc2O)cc1 (stereo unspecified)
MIC (Bacillus cereus [9]): 12 µg/mL (≈ 24.5 µM) | MIC (Staphylococcus aureus [10]): 12 µg/mL (≈ 24.5 µM) | MIC (Klebsiella pneumoniae): 12 µg/mL (≈ 24.5 µM) | MIC (Escherichia coli [11]): 12 µg/mL (≈ 24.5 µM) | MIC (Bacillus subtilis): 12 µg/mL (≈ 24.5 µM) | MIC (Proteus vulgaris): 12 µg/mL (≈ 24.5 µM)

CC(C)Cc1ccc(C(C)C(=O)c2ccc(OCc3cn(-c4ccc(Cl)cc4)nn3)cc2O)cc1 (stereo unspecified)
MIC (Bacillus cereus [9]): 12 µg/mL (≈ 24.5 µM) | MIC (Staphylococcus aureus [10]): 12 µg/mL (≈ 24.5 µM) | MIC (Klebsiella pneumoniae): 12 µg/mL (≈ 24.5 µM) | MIC (Escherichia coli [11]): 12 µg/mL (≈ 24.5 µM) | MIC (Bacillus subtilis): 12 µg/mL (≈ 24.5 µM) | MIC (Proteus vulgaris): 12 µg/mL (≈ 24.5 µM)

CC(C)Cc1ccc(C(C)C(=O)c2ccc(OCc3cn(-c4ccc([N+](=O)[O-])cc4)nn3)cc2O)cc1 (stereo unspecified)
MIC (Bacillus cereus [9]): 12 µg/mL (≈ 24 µM) | MIC (Staphylococcus aureus [10]): 12 µg/mL (≈ 24 µM) | MIC (Klebsiella pneumoniae): 12 µg/mL (≈ 24 µM) | MIC (Escherichia coli [11]): 12 µg/mL (≈ 24 µM) | MIC (Bacillus subtilis): 12 µg/mL (≈ 24 µM) | MIC (Proteus vulgaris): 12 µg/mL (≈ 24 µM)

CN(C)C(=O)c1ccc(/C=C/C(=O)c2cc(-n3cc(-c4ccccc4)nn3)ccc2O)cc1
IC50 [1]: 7.4 µM | IC50 [2]: 0.037 µM

CC(C)Cc1ccc(C(C)C(=O)c2ccc(OCc3cn(C4CCCC4)nn3)cc2O)cc1 (stereo unspecified)
MIC (Bacillus cereus [9]): 12 µg/mL (≈ 26.8 µM) | MIC (Staphylococcus aureus [10]): 12 µg/mL (≈ 26.8 µM) | MIC (Klebsiella pneumoniae): 12 µg/mL (≈ 26.8 µM) | MIC (Escherichia coli [11]): 12 µg/mL (≈ 26.8 µM) | MIC (Bacillus subtilis): 12 µg/mL (≈ 26.8 µM) | MIC (Proteus vulgaris): 12 µg/mL (≈ 26.8 µM)

COc1cc(/C=C/C(=O)c2cc(-n3cc(CN4C(=O)C(=O)c5ccccc54)nn3)ccc2O)cc(OC)c1OC
IC50 [1]: 7.4 µM | IC50 [2]: 0.037 µM

COc1ccc(/C=C/C(=O)c2cc(-n3cc(-c4ccccc4)nn3)ccc2O)cc1
IC50 [1]: 7.4 µM | IC50 [2]: 0.037 µM
